From ChEMBL document CHEMBL4610025, “Discovery of a follistatin-derived myostatin inhibitory peptide” (Bioorg Med Chem Lett, 2020) come the findings set out here.

Broadly, the IC50 is the midpoint of a concentration-inhibition curve.

Structures are written as SMILES. Active and inactive are the calls of the source. The rule behind the calls is not given here. Non-standard residues stand in square brackets, D forms with d. Residues, ends and D or L forms follow the SMILES beside them. Chg = N[C@H](C(=O)O)C1CCCCC1

Assay [1] addresses Transforming growth factor beta-1 proprotein (Homo sapiens) (UniProt P01137). In words: Inhibition of TGFbeta1 (unknown origin) expressed in HEK293 cells at 0.3 to 10 uM incubated for 4 hrs by dual luciferase reporter gene assay. The assay is classed as cell-based. Background: In a reporter assay the amount or activity of a reporter protein is the signal.
Assay [2] concerns the target Growth/differentiation factor 8 (Homo sapiens) (UniProt O14793). As to the kind of experiment: Inhibition of myostatin (unknown origin) expressed in HEK293 cells at 10 uM incubated for 4 hrs by dual luciferase reporter gene assay. The assay is classed as cell-based.
The target in assay [3] is T1, Growth/differentiation factor 8 (Homo sapiens, UniProt O14793).
T1 sequence (O14793 whole entry): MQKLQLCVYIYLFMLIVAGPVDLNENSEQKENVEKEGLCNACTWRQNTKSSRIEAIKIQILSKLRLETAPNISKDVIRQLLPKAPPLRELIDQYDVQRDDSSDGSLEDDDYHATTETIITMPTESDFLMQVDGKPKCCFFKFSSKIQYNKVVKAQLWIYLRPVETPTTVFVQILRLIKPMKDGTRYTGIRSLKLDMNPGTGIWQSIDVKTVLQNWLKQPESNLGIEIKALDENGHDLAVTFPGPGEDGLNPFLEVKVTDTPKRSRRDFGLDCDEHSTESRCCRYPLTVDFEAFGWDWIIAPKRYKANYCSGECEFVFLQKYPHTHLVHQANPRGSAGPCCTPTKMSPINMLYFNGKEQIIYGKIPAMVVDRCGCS
In words: (§1) Inhibition of myostatin (unknown origin) expressed in HEK293 cells incubated for 4 hrs by dual luciferase reporter gene assay. The assay is classed as cell-based.

Assay [4] concerns the target Growth/differentiation factor 8 (Homo sapiens) (UniProt O14793). The assay is described as §1. The assay is classed as cell-based.
The next assay deals with HEK293. In words: Inhibition of activin A (unknown origin) expressed in HEK293 cells at 0.3 to 10 uM incubated for 4 hrs by dual luciferase reporter gene assay. The format is cell-based. The settings on record: Homo sapiens.
For a further assay, the system named is Mus musculus. As to the kind of experiment: Effect on muscle growth in C57BL/6J mouse assessed as increase in tibialis anterior muscle weight at 20 nmol administered intramuscularly measured at day 28 relative to control. The assay is classed as functional.

Sequence of Transforming growth factor beta-1 proprotein (Homo sapiens) (P01137 279-390 limits assumed): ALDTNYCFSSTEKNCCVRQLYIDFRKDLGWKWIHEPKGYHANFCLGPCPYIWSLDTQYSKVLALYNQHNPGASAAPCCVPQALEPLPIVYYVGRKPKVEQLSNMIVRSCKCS

For `CC[C@H](C)[C@H](NC(=O)[C@H](CCSC)NC(=O)[C@H](Cc1c[nH]c2ccccc12)NC(=O)[C@H](CCCCN)NC(=O)[C@H](Cc1ccccc1)NC(=O)[C@H](CC(C)C)NC(=O)[C@@H](NC(=O)[C@H](CC(N)=O)NC(=O)[C@H](CC(=O)O)NC(=O)[C@H](CC(N)=O)NC(=O)[C@@H](N)C(C)C)[C@@H](C)O)C(=O)N[C@@H](Cc1ccccc1)C(=O)N[C@@H](CC(N)=O)C(=O)NCC(N)=O` (H-VNDNTLFKWMIFNG-NH2), the inhibition result (in assay [1]; with HEK293) was “inactive” throughout. Besides, the inhibition entry in assay [2] is “Active”. In assay [3], this compound showed a half-inhibitory concentration (IC50) of 6.2 µM. Also, the inhibition entry in assay [4] is “Dose-dependent effect”. Further, the Activity in the assay with Mus musculus came out at 112%.
`CC[C@H](C)[C@H](NC(=O)[C@H](CCC(N)=O)NC(=O)[C@@H](NC(=O)[C@H](CCCCN)NC(=O)[C@@H](NC(=O)[C@@H](Cc1c[nH]c2ccccc12)NC(=O)[C@H](CCCNC(=N)N)NC(=O)[C@@H](NC(=O)[C@H](Cc1ccc(O)cc1)NC(=O)[C@@H](N)Cc1c[nH]c2ccccc12)[C@@H](C)CC)[C@@H](C)CC)C1CCCCC1)C(=O)N[C@@H](Cc1c[nH]c2ccccc12)C(=O)N[C@@H](CO)C(=O)N[C@@H](CCCCN)C(=O)N[C@H](C(=O)N[C@@H](CCCNC(=N)N)C(=O)N[C@@H](CC(C)C)C(N)=O)C1CCCCC1` (H-WYIR[dW]IK[Chg]QIWSK[Chg]RL-NH2) had an IC50 in assay [3] of 3.56 µM.
